Data reported in ChEMBL document CHEMBL5505983, “Design, synthesis, and molecular modeling studies of novel 2-quinolone-1,2,3-triazole-α-aminophosphonates hybrids as dual antiviral and antibacterial agents” (Eur J Med Chem, 2024).
Converted amounts (≈) assume the structure as drawn.

Tests used:
Zika virus = assay: Antiviral activity against Zika virus infected in african green monkey Vero E6 cells assessed as inhibition of cytopathic effect by microscopy based analysis; assay type: functional, organism-based; conditions: Vero C1008
Enterococcus faecalis [1] = assay: Bactericidal activity against Enterococcus faecalis; assay type: functional
Staphylococcus aureus [2] = assay: Bactericidal activity against Staphylococcus aureus CIP 54127; assay type: functional
Escherichia coli [3] = assay: Antibacterial activity against Escherichia coli CIP 53154 assessed as reduction in bacterial growth by micro-broth dilution method; assay type: functional
Enterococcus faecalis [4] = assay: Ratio of MBC to MIC for Enterococcus faecalis; assay type: functional
Enterovirus A71 = assay: Antiviral activity against human EV71 infected in human RD cells assessed as inhibition of cytopathic effect by microscopy based analysis; assay type: functional, organism-based; conditions: Enterovirus A
Pseudomonas aeruginosa [5] = assay: Ratio of MBC to MIC for Pseudomonas aeruginosa CIP A22; assay type: functional
Yellow fever virus = assay: Antiviral activity against Yellow fever virus infected in human Huh-7 cells assessed as inhibition of cytopathic effect by microscopy based analysis; assay type: functional, organism-based
Staphylococcus aureus [6] = assay: Antibacterial activity against Staphylococcus aureus CIP 54127 assessed as reduction in bacterial growth by micro-broth dilution method; assay type: functional
Human rhinovirus sp. [7] = assay: Antiviral activity against Human rhinovirus B14 infected in human HeLa-RH cells assessed as inhibition of cytopathic effect by microscopy based analysis; assay type: functional, organism-based
[8] = Cytotoxicity against human HeLa-RH cells; assay type: toxicity, cell-based
Pseudomonas aeruginosa [9] = assay: Bactericidal activity against Pseudomonas aeruginosa CIP A22; assay type: functional
Staphylococcus aureus [10] = assay: Ratio of MBC to MIC for Staphylococcus aureus CIP 54127; assay type: functional
[11] = Cytotoxicity against African green monkey Vero E6 cells; assay type: toxicity, cell-based, Vero C1008; conditions: chlorocebus sabaeus
Escherichia coli [12] = assay: Ratio of MBC to MIC for Escherichia coli CIP 53154; assay type: functional
Chikungunya virus = assay: Antiviral activity against CHIKV infected in African green monkey Vero A cells assessed as inhibition of cytopathic effect by microscopy based analysis; assay type: functional, organism-based
[13] = Cytotoxicity against African green monkey Vero A cells; assay type: toxicity, cell-based; conditions: chlorocebus sabaeus
Pseudomonas aeruginosa [14] = assay: Antibacterial activity against Pseudomonas aeruginosa CIP A22 assessed as reduction in bacterial growth by micro-broth dilution method; assay type: functional
[15] = Cytotoxicity against human RD cells; assay type: toxicity, cell-based
[16] = Cytotoxicity against human Huh-7 cells; assay type: toxicity, cell-based
Human rhinovirus sp. [17] = assay: Antiviral activity against Human rhinovirus A2 infected in human HeLa-RH cells assessed as inhibition of cytopathic effect by microscopy based analysis; assay type: functional, organism-based
Escherichia coli [18] = assay: Bactericidal activity against Escherichia coli CIP 53154; assay type: functional
Enterococcus faecalis [19] = assay: Antibacterial activity against Enterococcus faecalis assessed as reduction in bacterial growth by micro-broth dilution method; assay type: functional

SMILES	IC50 (Zika virus) [µM]	MBC (Enterococcus faecalis [1]) [µM]	MBC (Staphylococcus aureus [2]) [µM]	MIC (Escherichia coli [3]) [µM]	Ratio (Enterococcus faecalis [4])	IC50 (Enterovirus A71) [µM]	Ratio (Pseudomonas aeruginosa [5])	IC50 (Yellow fever virus) [µM]	MIC (Staphylococcus aureus [6]) [µM]	IC50 (Human rhinovirus sp. [7]) [µM]	CC50 [8] [µM]	MBC (Pseudomonas aeruginosa [9]) [µM]	Ratio (Staphylococcus aureus [10])	CC50 [11] [µM]	Ratio (Escherichia coli [12])	IC50 (Chikungunya virus) [µM]	CC50 [13] [µM]	MIC (Pseudomonas aeruginosa [14]) [µM]	MBC (Escherichia coli [18]) [µM]	MIC (Enterococcus faecalis [19]) [µM]	also measured
CCOP(=O)(OCC)C(Nc1ccc(C)cc1)c1cc(Cn2cc(Cn3c(=O)cc(C)c4cc(F)ccc43)nn2)ccc1O (stereo not given)	> 100	60 (≈ 37.2 µg/mL)	240 (≈ 149 µg/mL)	930 (≈ 576 µg/mL)	1	> 100	2	> 100	240 (≈ 149 µg/mL)	> 100	> 100	7350 (≈ 4550 µg/mL)	1	> 100	1	> 100	> 33.3	7350 (≈ 4550 µg/mL)	930 (≈ 576 µg/mL)	60 (≈ 37.2 µg/mL)	CC50 [15]: > 100 µM; CC50 [16]: > 100 µM; IC50 (Human rhinovirus sp. [17]): > 11.1 µM
CCOP(=O)(OCC)C(Nc1ccccc1OC)c1cc(Cn2cc(Cn3c(=O)cc(C)c4cc(F)ccc43)nn2)ccc1O (stereo not given)	> 100	60 (≈ 38.1 µg/mL)	490 (≈ 311 µg/mL)	1970 (≈ 1250 µg/mL)	1	> 100	1.99	> 100	250 (≈ 159 µg/mL)	> 100	> 100	1970 (≈ 1250 µg/mL)	1.96	> 33.3	1	> 100	40.8	1970 (≈ 1250 µg/mL)	1970 (≈ 1250 µg/mL)	60 (≈ 38.1 µg/mL)	CC50 [15]: > 100 µM; CC50 [16]: 88 µM; IC50 (Human rhinovirus sp. [17]): > 1.23 µM
CCOP(=O)(OCC)C(Nc1ccc(C)cc1)c1cc(Cn2cc(Cn3c(=O)cc(C)c4ccccc43)nn2)ccc1O (stereo not given)	> 100	70 (≈ 42.1 µg/mL)	520 (≈ 313 µg/mL)	520 (≈ 313 µg/mL)	1	> 100	2	> 100	520 (≈ 313 µg/mL)	> 100	> 100	4160 (≈ 2500 µg/mL)	1	> 100	1	> 100	> 100	4160 (≈ 2500 µg/mL)	520 (≈ 313 µg/mL)	70 (≈ 42.1 µg/mL)	CC50 [15]: > 100 µM; CC50 [16]: 27.9 µM; IC50 (Human rhinovirus sp. [17]): > 3.7 µM
CC1(C)S[C@@H]2[C@H](NC(=O)[C@H](N)c3ccccc3)C(=O)N2[C@H]1C(=O)O [AMPICILLIN]		260 (≈ 90.8 µg/mL)	270 (≈ 94.3 µg/mL)	260 (≈ 90.8 µg/mL)	1		1.96		270 (≈ 94.3 µg/mL)			530 (≈ 185 µg/mL)	1		2.04			530 (≈ 185 µg/mL)	530 (≈ 185 µg/mL)	260 (≈ 90.8 µg/mL)	
CCN(CC)CCCC(C)Nc1ccnc2cc(Cl)ccc12 (stereo not given) [CHLOROQUINE]																11	89				
CO[C@H]1/C=C/O[C@@]2(C)Oc3c(C)c(O)c4c(O)c(c(/C=N/N5CCN(C)CC5)c(O)c4c3C2=O)NC(=O)/C(C)=C\C=C\[C@H](C)[C@H](O)[C@@H](C)[C@@H](O)[C@@H](C)[C@H](OC(C)=O)[C@@H]1C [RIFAMPIN]		300 (≈ 247 µg/mL)	150 (≈ 123 µg/mL)	300 (≈ 247 µg/mL)	1		2.03		80 (≈ 65.8 µg/mL)			610 (≈ 502 µg/mL)	1.88		2.03			610 (≈ 502 µg/mL)	610 (≈ 502 µg/mL)	300 (≈ 247 µg/mL)	
